Target: T1, interaction between VCAM-1 and VLA-4 (Homo sapiens, UniProt P05556+P13612)
T1 construct: supplied in their natural form as surface molecules on human U937 cells; host or cells: U937 cells carry endogenous VLA-4; The partner hVCAM-1(1-3)-IgG was made in house in transfected COS cells (ATCC CRL1651) and used as culture supernatant
Assay: U937/VCAM-1 cell adhesion test (adhesion of U937 cells to hVCAM-1(1-3)-IgG)
Type: cell-based
Details: concentration leading to 50% inhibition of adhesion of human U937 cells (ATCC CRL 1593) to hVCAM-1(1-3)-IgG
Description: The test method used for the activity of the compounds of the formula I on the interaction between VCAM-1 and VLA-4 is the assay described below which is specific for this interaction. The cellular binding components, i.e., the VLA-4 integrins, are supplied in their natural form as surface molecules on human U937 cells (ATCC CRL 1593). which belong to the leucocytes group. The specific binding components used are genetically engineered recombinant soluble fusion proteins, consisting of the extracytoplasmatic domain of human VCAM-1 and the constant region of a human immunoglobulin of the subclass IgG1.
Assay for the Measurement of the Adhesion of U937 Cells (ATCC CRL 1593) to hVCAM-1(1-3)-IgG
1. Preparation of Human VCAM-1 (1-3)-IgG and Human CD4-IgG
A genetic construct for the expression of the extracellular domain of human VCAM-1, associated with the genetic sequence of the heavy chain of human immunoglobulin IgG1 (hinge, CH2 and CH3 regions), from Dr. Brian Seed, Massachusetts General Hospital. Boston, USA was employed (cf. Damle and Aruffo, Proc. Natl. Acad. Sci. USA 1991, 88, 6403-6407). The soluble fusion protein hVCAM-1(1-3)-IgG contained the three amino-terminal extracellular immunoglobulin-like domains of human VCAM-1 (Damle and Aruffo, Proc. Natl. Acad. Sci. USA 1991, 88, 6403-6407). CD4-IgG (Zettimeissl et al., DNA and Cell Biology 1990, 9, 347) served as a fusion protein for negative controls. The recombinant proteins were expressed as soluble proteins after DEAE/dextran-mediated DNA transfection in COS cells (ATCC CRL1651) according to standard procedures (Ausubel et al., Current Protocols in Molecular Biology, John Wiley & Sons, Inc., 1994).
2. Assay for the Measurement of the Adhesion of U937 Cells to hVCAM-1 (1-3)-IgG
2.1 96-well microtiter test plates (Nunc Maxisorb) were incubated at room temperature for 1 hour with 100 μl/well of a goat-anti-human IgG antibody solution (10 μg/ml in 50 mM tris, pH 9.5). After removal of the antibody solution, washing was carried out once with PBS.
2.2 150 μl/well of a blocking buffer (1% BSA in PBS) were incubated on the plates at room temperature for 0.5 hour. After removal of the blocking buffer, washing was carried out once with PBS.
2.3 100 μl per well of a cell culture supernatant of transfected COS cells were incubated on the plates at room temperature for 1.5 hours. The COS cells were transfected with a plasmid which codes for the three N-terminal immunoglobulin-like domains of VCAM-1, coupled to the Fc part of human IgG1 (hVCAM-1 (1-3)-IgG). The content of hVCAM-1 (1-3)-IgG was about 0.5-1 μg/ml. After removal of the culture supernatant, washing was carried out once with PBS.
2.4 The plates were incubated at room temperature for 20 minutes with 100 μl/well of Fc receptor blocking buffer (1 mg/ml of γ-globulin, 100 mM NaCl, 100 μM MgCl2, 100 μM MnCl2, 100 μM CaCl2, 1 mg/ml of BSA in 50 mM HEPES, pH 7.5). After removal of the Fc receptor blocking buffer, washing was carried out once with PBS.
2.5 20 μl of binding buffer (100 mM NaCl, 100 μM MgCl2, 100 μM MnCl2, 100 μM CaCl2, 1 mg/ml of BSA in 50 mM HEPES, pH 7.5) were initially introduced, and the substances to be tested were added in 10 μl of binding buffer and incubated for 20 minutes. The controls used were antibodies against VCAM-1 (BBT, No. BBA6) and against VLA-4 (immunotech, No. 0764).
2.6 U937 cells were incubated in Fc receptor blocking buffer for 20 minutes and then added by pipette in a concentration of 1×10^6/ml and in an amount of 100 μl per well ([…]).
2.7 The plates were slowly immersed at an angle of 45° in stop buffer (100 mM NaCl, 100 μM MgCl2, 100 μM MnCl2, 100 μM CaCl2 in 25 mM tris, pH 7.5) and shaken off. The process was repeated.
2.8 50 μl/well of a dye solution (16.7 μg/ml of Hoechst Dye 33258, 4% formaldehyde, 0.5% triton X-100 in PBS) were then incubated on the plates for 15 minutes. […]

T1 sequence (P13612 34-1032): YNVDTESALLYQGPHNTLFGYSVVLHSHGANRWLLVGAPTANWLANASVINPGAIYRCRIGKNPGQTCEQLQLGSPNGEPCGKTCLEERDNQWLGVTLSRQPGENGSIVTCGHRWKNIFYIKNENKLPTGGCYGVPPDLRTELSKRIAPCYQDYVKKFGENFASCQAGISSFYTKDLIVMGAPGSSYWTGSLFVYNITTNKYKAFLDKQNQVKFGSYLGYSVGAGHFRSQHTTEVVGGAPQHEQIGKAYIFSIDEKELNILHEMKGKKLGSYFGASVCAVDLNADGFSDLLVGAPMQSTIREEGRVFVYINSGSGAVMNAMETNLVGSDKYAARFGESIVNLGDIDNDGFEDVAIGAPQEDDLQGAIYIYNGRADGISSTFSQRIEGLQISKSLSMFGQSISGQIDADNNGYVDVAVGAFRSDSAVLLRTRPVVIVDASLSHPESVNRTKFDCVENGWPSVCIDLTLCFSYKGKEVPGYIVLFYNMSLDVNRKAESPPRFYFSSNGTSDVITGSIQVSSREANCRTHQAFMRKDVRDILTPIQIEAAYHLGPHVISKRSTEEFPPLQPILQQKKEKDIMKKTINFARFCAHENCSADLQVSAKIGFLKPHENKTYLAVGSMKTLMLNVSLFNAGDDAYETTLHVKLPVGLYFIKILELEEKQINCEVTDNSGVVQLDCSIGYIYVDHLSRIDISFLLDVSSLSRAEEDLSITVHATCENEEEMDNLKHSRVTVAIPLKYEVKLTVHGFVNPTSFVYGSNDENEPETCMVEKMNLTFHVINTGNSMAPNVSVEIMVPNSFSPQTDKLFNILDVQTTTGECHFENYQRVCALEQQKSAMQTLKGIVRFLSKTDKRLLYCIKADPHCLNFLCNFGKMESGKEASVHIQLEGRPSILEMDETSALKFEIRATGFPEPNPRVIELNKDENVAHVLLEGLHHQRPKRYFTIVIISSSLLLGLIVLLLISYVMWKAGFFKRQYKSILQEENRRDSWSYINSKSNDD
T1 sequence (P05556 21-798): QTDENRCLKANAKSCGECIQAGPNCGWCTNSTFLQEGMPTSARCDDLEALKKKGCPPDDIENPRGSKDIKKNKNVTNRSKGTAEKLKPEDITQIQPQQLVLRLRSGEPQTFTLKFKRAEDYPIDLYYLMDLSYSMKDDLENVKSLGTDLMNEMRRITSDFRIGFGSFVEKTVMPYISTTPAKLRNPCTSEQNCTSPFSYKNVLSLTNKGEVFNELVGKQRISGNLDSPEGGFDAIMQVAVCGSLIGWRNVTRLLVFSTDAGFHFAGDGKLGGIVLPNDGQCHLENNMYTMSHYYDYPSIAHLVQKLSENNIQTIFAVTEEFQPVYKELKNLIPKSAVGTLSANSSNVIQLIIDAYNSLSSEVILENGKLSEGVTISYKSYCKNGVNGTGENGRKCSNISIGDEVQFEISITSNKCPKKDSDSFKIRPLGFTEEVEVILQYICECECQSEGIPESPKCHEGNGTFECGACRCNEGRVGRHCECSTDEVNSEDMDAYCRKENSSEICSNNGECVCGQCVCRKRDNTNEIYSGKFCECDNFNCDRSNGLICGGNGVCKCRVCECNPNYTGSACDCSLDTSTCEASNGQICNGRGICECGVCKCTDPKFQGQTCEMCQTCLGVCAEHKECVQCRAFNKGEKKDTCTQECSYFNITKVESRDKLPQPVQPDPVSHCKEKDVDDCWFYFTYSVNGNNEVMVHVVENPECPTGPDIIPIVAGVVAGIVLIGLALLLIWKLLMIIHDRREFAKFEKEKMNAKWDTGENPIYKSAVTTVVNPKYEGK

SMILES | IC50
Cc1ccccc1NC(=O)Nc1ccc(CN2C(=O)N(CC(=O)N[C@@H](CC(=O)O)c3ccccc3)C(=O)C2(C)C)cc1 [Example 11, (S)-3-(2-(4,4-Dimethyl-3-(4-(3-(2-methylphenyl)ureido)benzyl)2,5-dioxoimidazolidin-1-yl)acetylamino)-3-phenylpropionic Acid] | 10 nM
Cc1ccccc1NC(=O)Nc1ccc(CN2C(=O)N([C@@H](CC(C)C)C(=O)N[C@@H](CC(=O)O)C(=O)O)C(=O)C2(C)C)cc1 [Example 27, ((S)-2-(4,4Dimethyl-3-(4-(3-(2-methylphenyl)ureido)benzyl)-2,5-dioxoimidazolidin-1-yl)-2-(2-methylpropyl)acetyl)-L-aspartic Acid] | 27 nM
CC(C)C[C@@H](C(=O)N[C@@H](CC(=O)O)C(=O)N[C@H](C(=O)O)c1ccccc1)N1C(=O)N(Cc2ccc(NC(=O)Nc3ccccc3F)cc2)C(C)(C)C1=O [Example 67] | 2.3 nM
Cc1ccccc1NC(=O)Nc1ccc(CN2C(=O)N([C@@H](CC(C)C)C(=O)NCCC(=O)O)C(=O)C2(C)C)cc1 [Example 16, 3-((S)-2-(4,4-Dimethyl-3-(4-(3-(2-methylphenyl)ureido)benzyl)-2,5-dioxoimidazolidin-1-yl)-2-(2-methylpropyl)acetylamino)propionic Acid] | 55 nM
COc1ccccc1NC(=O)Nc1ccc(CN2C(=O)N([C@@H](CC(C)C)C(=O)N[C@@H](CC(=O)O)C(=O)N[C@H](C(=O)O)c3ccccc3)C(=O)C2(C)C)cc1 [Example 61] | 24.5 nM

Further lines, results first:

IC50 | SMILES
3.8 nM | Cc1ccccc1NC(=O)Nc1ccc(CN2C(=O)N([C@@H](CC(C)C)C(=O)N[C@H](C)CC(=O)O)C(=O)C2(C)C)cc1 [Example 8, (R)-3-((S)-2-(4,4-Dimethyl-3-(4-(3-(2-methylphenyl)ureido)benzyl)-2,5-dioxoimidazolidin-1-yl)-2-(2-methylpropyl)acetylamino)-3-methylpropionic Acid]
50 nM | Cc1ccccc1NC(=O)Nc1ccc(CN2C(=O)N(C(CC(C)C)C(=O)NC(CC(=O)O)c3ccc(F)cc3)C(=O)C2(C)c2ccccc2)cc1 (stereo not drawn) [Example 216]
122 nM | Cc1ccccc1NC(=O)Nc1ccc(CN2C(=O)N(C(CC(C)C)C(=O)NC(CC(=O)O)c3ccc(C(C)(C)C)cc3)C(=O)C2(C)c2ccccc2)cc1 (stereo not drawn) [Example 191]
95 nM | Cc1ccccc1NC(=O)Nc1ccc(CN2C(=O)N(C(CC(C)C)C(=O)NC(CC(=O)O)c3c(F)cccc3F)C(=O)C2(C)c2ccccc2)cc1 (stereo not drawn) [Example 205]

From patent US6521654B2, “Substituted imidazolidine derivatives, their preparation, their use and pharmaceutical preparations including them” (Aventis Pharma Deutschland GmbH, priority 1997, dated 2003)
